# In US6479502B1, “Hydroxamic acid derivatives as proteinase inhibitors” (British Biotech Pharmaceuticals, priority 1998, dated 2002):
# Tests used:
# collagenase-3 (MMP-13) = collagenase-3 (MMP-13) (Homo sapiens, UniProt P45452); assay: Inhibition of collagenase-3 (MMP-13); assay type: biochemical; conditions: statement in words, no value given
# Method: The potency of compounds of the invention as inhibitors of collagenase may be determined by the procedure of Cawston and Barrett, (Anal. Biochem., 99, 340-345, 1979), whereby a 1mM solution of the compound being tested, or a dilution thereof, is incubated at 37° for 16 hours with collagen and collagenase (buffered with 25mM Hepes, pH 7.5 containing 5mM CaCl2, 0.05% Brij 35 and 0.02% NaN3). The collagen is acetylated ^14C collagen prepared by the method of Cawston and Murphy, (Methods in Enzymology, 80, 711, 1981). The samples are centrifuged to sediment undigested collagen, and an aliquot of the radioactive supernatant removed for assay on a scintillation counter as a measure of hydrolysis. The collagenase activity in the presence of 1mM of the test compound, or a dilution thereof, is compared to activity in a control devoid of inhibitor and the result reported as that of inhibitor concentration effecting 50% inhibition of the collagenase activity (IC50). The potency of compounds of the invention as inhibitors of stromelysin may be determined by the procedure of Cawston et al, (Biochem. J., 195, 159-165, 1981), whereby a 1mM solution of the compound being tested, or a dilution thereof, is incubated at 37° for 16 hours with stromelysin and ^14C acetylate casein (buffered with 25mM Hepes, pH 7.5 containing 5mM CaCl2, 0.05% Brij 35 and 0.02% NaN3). […]
# gelatinase A = target: T1, gelatinase A (Homo sapiens, UniProt P08253); assay: Inhibition of gelatinase A (72 kDa gelatinase); assay type: biochemical; conditions: statement in words, no value given
# T1 construct: endogenous in cells; host or cells: RPMI-7951 cells (endogenous enzyme, purified by gelatin-agarose chromatography)
# T1 sequence (P08253 110-660): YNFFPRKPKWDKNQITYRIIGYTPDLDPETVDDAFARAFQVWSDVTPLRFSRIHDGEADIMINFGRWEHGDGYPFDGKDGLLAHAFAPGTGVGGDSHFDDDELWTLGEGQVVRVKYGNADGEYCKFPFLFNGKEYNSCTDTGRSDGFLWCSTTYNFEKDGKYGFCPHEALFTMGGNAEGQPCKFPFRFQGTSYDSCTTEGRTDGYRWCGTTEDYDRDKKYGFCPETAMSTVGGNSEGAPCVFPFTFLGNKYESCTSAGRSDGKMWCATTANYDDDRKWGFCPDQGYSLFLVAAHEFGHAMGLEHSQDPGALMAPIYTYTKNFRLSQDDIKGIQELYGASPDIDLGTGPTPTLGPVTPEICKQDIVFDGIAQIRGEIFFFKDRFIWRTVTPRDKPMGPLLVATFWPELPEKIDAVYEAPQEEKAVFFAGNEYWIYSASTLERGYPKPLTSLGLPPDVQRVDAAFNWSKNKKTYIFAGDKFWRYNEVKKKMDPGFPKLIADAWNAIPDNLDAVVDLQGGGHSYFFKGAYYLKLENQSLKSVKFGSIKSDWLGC
# Method: The potency of compounds of the invention as inhibitors of 72 kDa gelatinase may be determined by a procedure based on the method of Sellers et. al, Biochem. J., 171, 493-496 (1979). 72 kDa gelatinase, derived from RPMI-7951 cells is purified by gelatin-agarose chromatography. The enzyme is activated by incubation with aminophenyl mercuric acetate and approximately 0.05 units is incubated with 50μg [^14C]-radiolabellet gelatin in an appropriate buffer for 16 hours at 37° C. At the end of the incubation 50μg bovine serum albumin, together with trichloroacetic acid (final concentration 16%) are added to stop the reaction and to precipitate any undegraded substrate. The reaction tubes are placed on ice for 15 minutes before centrifugation at 10,000g for 15 minutes to sediment the precipitated substrate. A 200μl aliquot of the reaction supernatant is removed and the radioactivity determined by liquid scintillation counting. The effect of the inhibitors is determined by reference to a dose response curve. The IC50 (the concentration of inhibitor required to cause a 50% decrease in enzyme activity) is obtained by fitting a curve to the data and computing the concentration of inhibitor required to achieve 50% inhibition of the enzyme. For each IC50 determination, the effect on gelatinase activity of at least 8 concentrations of the inhibitor are examined. […]
inhibitor of collagenase-3 (MMP-13) (collagenase-3 (MMP-13)),inhibitor of gelatinase A (gelatinase A),Compound
inhibitor of collagenase-3 (MMP-13),–,"O=C(CC(Cc1ccccc1)S(=O)(=O)N1CCC(COc2ccc(F)cc2)CC1)NO (centres unmarked) [Example 6, 3-[4-(4-Fluoro-phenoxymethyl)-piperidine-1-sulfonyl]-N-hydroxy-4-phenyl-butyramide]"
–,inhibitor of gelatinase A,"O=C(CC(Cc1ccccc1)S(=O)(=O)N1CCC(Cc2ccccc2)CC1)NO (centres unmarked) [Example 2, 3-(4-Benzyl-piperidine-1-sulfonyl)-N-Hydroxy-4-phenyl-butyramide]"
